From article PMC5397059, “Design, synthesis and structure-activity relationship study of wollamide B; a new potential anti TB agent” (PLoS ONE, 2017)
≈ marks a conversion by molar mass, not a printed value. Where “and” joins values, the source holds several entries; their conditions need not be identical. Equal values may be shown once. Read-outs that look alike come from different tables or passages of the source. Non-standard residues stand in square brackets, D forms with d. Residues, ends and D or L forms follow the SMILES beside them. dPhe(4-Cl) = N[C@H](Cc1ccc(Cl)cc1)C(=O)O; dOrn = NCCC[C@@H](N)C(=O)O

Assays:
[1] = Chemi-Luminescent Nitrogen Detection (CLND) kinetic solubility assay; format: physicochemical; conditions: phosphate buffered saline, pH 7.4; kinetic aqueous solubility by CLND; read-out: Solubility
Procedure: GSK in-house kinetic solubility assay: 5 μL of 10mM DMSO stock solution diluted to 100 uL with pH7.4 phosphate buffered saline, equilibrated for 1 hour at room temperature, filtered through Millipore Multiscreen HTS-PCF filter plates (MSSL BPC).
The filtrate is quantified by suitably calibrated flow injection CLND. The standard error of the CLND solubility determination is ±30 μM, the upper limit of the solubility is 500 μM when working from 10 mM DMSO stock solution.

[2] = target: human serum albumin (Homo sapiens, UniProt P02768); assay: Human serum albumin (HSA) binding assay; format: in vitro ADME; conditions: human serum albumin binding
Chain of human serum albumin (P02768 25-609): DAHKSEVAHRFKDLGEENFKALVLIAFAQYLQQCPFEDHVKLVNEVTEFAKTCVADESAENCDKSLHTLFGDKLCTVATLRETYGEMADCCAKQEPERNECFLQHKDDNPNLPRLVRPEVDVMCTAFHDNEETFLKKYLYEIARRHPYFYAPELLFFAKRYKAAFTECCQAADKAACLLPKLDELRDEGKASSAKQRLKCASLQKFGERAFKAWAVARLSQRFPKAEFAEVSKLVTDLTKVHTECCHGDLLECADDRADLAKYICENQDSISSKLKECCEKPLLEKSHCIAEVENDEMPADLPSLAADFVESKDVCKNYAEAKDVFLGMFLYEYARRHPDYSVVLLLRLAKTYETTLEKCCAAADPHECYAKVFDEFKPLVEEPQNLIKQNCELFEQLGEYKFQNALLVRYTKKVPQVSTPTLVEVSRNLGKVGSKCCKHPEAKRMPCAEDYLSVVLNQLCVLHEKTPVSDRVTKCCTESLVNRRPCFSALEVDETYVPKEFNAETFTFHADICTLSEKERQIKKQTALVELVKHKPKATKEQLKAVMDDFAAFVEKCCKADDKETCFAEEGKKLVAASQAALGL
Procedure: HSA binding assay was performed according to the method described by Valko K, et al. The basic principle of the measurements is the determination of gradient retention times of compounds on immobilized HSA column and converting these retention times to the appropriate property values using calibration. The peaks are detected and identified by UV. Calibration sets of compounds are measured before each run for which the HSA binding values are known. The retention times of the calibration set of compounds are plotted against these known values. The slope and the intercept of the obtained straight lines are used to calculate the HSA binding for the unknown compounds.

[3] = Plasma stability assay, mouse plasma; format: in vitro ADME; conditions: CD1, mouse, plasma; 2 hours at 37°C, triplicates; read-out: Plasma stability (% remaining) Mouse
Procedure: (§1) Plasma stability of the compounds was assessed in CD1 mouse and human plasma. Plasma was spiked with 1 μL of a 10 mM of each test compound solution to produce a 1 uM incubation. Three separate 300 μl aliquots were then taken from each tube and incubated at 37°C for 2 h. At each time point (0, 15, 30, 60 and 120 min), 50 μL of plasma were collected from each sample. Samples were extracted by protein precipitation with 250 μL of 0.1% AcOH acetonitrile methanol 3–1 (v/v) containing 1uM internal standard and centrifuged for 10min at 2800rpm. Supernatants were collected prior the injection onto an LC-MS/MS system. Analyte/Internal standard peak area ratios were referenced to the zero time-point samples as 100% in order to determine the percentage of compound remaining for each time-point. Ln plots of the % remaining for each compound were used to determine the half-life for the plasma incubations.

[4] = Plasma stability assay, human plasma; format: in vitro ADME; conditions: human, plasma; 2 hours at 37°C, triplicates; read-out: Plasma stability (% remaining) Human
Procedure: as §1

[5] = Intrinsic clearance (CLint) assay, mouse liver microsomes; format: in vitro ADME; conditions: for % LBF Mouse: liver blood flow; for CLint Mouse: mouse liver microsomes; for half-life at 0.5 µM: mouse, pooled mouse liver microsomes, pH 7.4, read-out: Microsomal t1/2 Mouse; for CLpred Mouse: predicted metabolic clearance
Procedure: (§2) Pooled mouse and human liver microsomes are purchased from Xenotech. Microsomes (final protein concentration 0.5 mg/mL, MgCl2 (final concentration = 5 mM) and test compound (final substrate concentration = 0.5] M; final DMSO concentration = 0.5%) in 0.1 M phosphate buffer pH 7.4 are pre-incubated at 37°C prior to the addition of NADPH (final concentration = 1 mM) to initiate the reaction. The final incubation volume is 600 μL.
(§3) Control incubation is included for each compound tested where 0.1 M phosphate buffer pH 7.4 is added instead of NADPH (minus NADPH). One control compound is included with each species. All incubations are performed singularly for each test compound. Each compound is incubated for 45 minutes and samples (100 μL) of incubate are taken at 0, 5, 15, 30 and 45 min. The control (minus NADPH) is sampled at 30 min only. The reactions are stopped by the addition of sample to 200 μL Acetonitrile: Methanol 3:1 containing internal standard. The terminated samples are centrifuged at 2,500 rpm for 20 min at 4°C to precipitate the protein. Quantitative analysis: following protein precipitation, the samples were analyzed using specific LC-MS/MS conditions. Data analysis: from a plot of ln peak area ratio (compound peak area/internal standard peak area) against time, the gradient of the line was determined. Subsequently, half-life and intrinsic clearance were calculated using the equations below: Eliminationrateconstant(K)=(−gradient) Halflife(t1/2)(min)=0.693/K Cli(mL/min/gprotien)=V×0.693/t1/2 WhereV=Incubationvolume(mL/gmicrosomalprotien)

[6] = Intrinsic clearance (CLint) assay, human liver microsomes; format: in vitro ADME; conditions: for half-life at 0.5 µM: human, pooled human liver microsomes, pH 7.4, human liver microsomes, read-out: Microsomal t1/2 Human; for % LBF Human: liver blood flow; for CLpred Human: predicted metabolic clearance; for % LBF given as a fraction (metabolic stability class): predicted hepatic clearance, microsomal stability
Procedure: as §2, §3

[7] = system: Mtb H37Rv; conditions: for MIC against Mtb H37Rv: duplicate, analogues
[8] = Chrom logD assay; format: physicochemical; conditions: pH 7.4, read-out: Log D
Procedure: The Chromatographic Hydrophobicity Index (CHI) values were measured using a reversed phase HPLC column (50 x 2 mmx 3 μMGemini NX C18, Phenomenex, UK) with fast acetonitrile gradient at starting mobile phase of 100% pH = 7.4 buffer. CHI values are derived directly from the gradient retention times by using a calibration line obtained for standard compounds. The CHI value approximates to the volume % organic concentration when the compound elutes. CHI is linearly transformed into ChromlogD by the formula: ChromlogD=0.0857CHI−2.00
The average error of the assay is ±3 CHI unit or ±0.25 ChromlogD.

[9] = Artificial membrane permeability assay; format: in vitro ADME; conditions: PAMPA, pH 7.4; passive artificial membrane permeability; read-out: Permeability
Procedure: A 8% L-a-phosphatidylcholine (EPC) in 1% cholesterol decane solution and a 1.8% EPC in cholesterol decane solution were prepared. The lipid solution was then aliquoted into 4 mL capped vials, sealed with parafilm and stored in-20°Cfreezer. The lipid solution was then transferred from 4 mL vial into 96-well half area plate (130μL/well) for daily assay usage. An additional 50 mM phosphate buffer with 0.5% encapsin, pH at 7.4 was prepared. The assay was run by the Biomek FX and Biomek software. The assay procedure is written under the Biomek software. For one batch assay, it can test two 96-well sample plates with at least one standard on each sample plate. The total assay time was about 4 hours. 3.5 μL of lipid solution were added to the filler plate, shaken for 12 seconds, and 250 μL of buffer were added to donor side and 100 μL to the receiver side. The assay plate was shaken for 45 min before adding the compounds. The test compounds (2.5 μL) were added to the donor side. The assay was run as replicates: Assay plates1 and 2 tested the sample plate 1; assay plates 3 and 4 tested the sample plate 2. The assay plates were then incubated and shaken for 3 hours at room temperature.
The assay samples were transferred to the HPLC analysis plates and 100 μL of receiver solution were aspirated and transferred to the receiver for analysis. Similarly, another 100 μL from the donor solution were transferred to the donor analysis plate.
Compound concentration was measured by HPLC at different time-points and permeability was established as nm/sec.

[10] = reversed phase HPLC column (Gemini NX C18)

Structure (SMILES)	solubility kinetic at 1 h [1] [µg/mL]	% HSA [2]	remaining at 2 h, 1 uM [3] [%]	remaining at 2 h, 1 uM [4] [%]	% LBF Mouse [5] [%]	CLint Mouse [5] [mL/min/g tissue]	half-life at 0.5 µM [5] [h]	CLpred Mouse [5] [mL/min/kg]	CLint Human ([6]; human liver microsomes) [mL/min/g tissue]	half-life at 0.5 µM [6] [h]	% LBF Human [6] [%]	CLpred Human [6] [mL/min/kg]	MIC against Mtb H37Rv [7] [µM]	chromatographic logD [8]	Papp at 3 h [9] [×10⁻⁶ cm/s]	% LBF given as a fraction (metabolic stability class) [6]	Microsomal t1/2 Human ([6]; human liver microsomes) [h]	chromatographic logD [8, 10]	antimycobacterial activity against Mtb H37Rv ([7]; at the maximum dose tested)
CC(C)C[C@@H]1NC(=O)[C@H](C)NC(=O)[C@@H](CCCN)NC(=O)[C@H](CC(N)=O)NC(=O)[C@H](C(C)C)NC(=O)[C@@H](CC(C)C)NC1=O [Compound 3c] (cyclo(AL[dL]VN[dOrn]))	136 (≈ 218 µM)	26% and 25.51%	92	86	<16.27	<0.48	> 2.31	<20.50	<0.40	> 2.31	<35.08	6.31	>80						
CC[C@H](C)[C@@H]1NC(=O)[C@@H](CC(C)C)NC(=O)[C@H](CC(C)C)NC(=O)[C@H](Cc2c[nH]c3ccccc23)NC(=O)[C@@H](CCCN)NC(=O)[C@H](CC(N)=O)NC1=O [Compound 7c] (cyclo(IN[dOrn]WL[dL]))	≥ 177	76.35%	98	99	<16.27	<0.48	> 2.31	<20.50	1.70	0.54	69.81	12.57		1.83	< 1				
CC(C)C[C@@H]1NC(=O)[C@H](Cc2c[nH]c3ccccc23)NC(=O)[C@@H](CCCN)NC(=O)[C@@H](CCCN)NC(=O)[C@H](C(C)C)NC(=O)[C@@H](CC(C)C)NC1=O [Compound 9c] (cyclo(L[dL]V[dOrn][dOrn]W))	39 (≈ 52.7 µM)	86.46%	100	100	18.68	0.57	1.95	23.53	0.45	2.03	38.08	6.85		1.32	1	< 1/3			
CC(C)C[C@@H]1NC(=O)[C@H](Cc2c[nH]c3ccccc23)NC(=O)[C@@H](CCCN)NC(=O)[C@H](CC(N)=O)NC(=O)[C@H](C(C)C)NC(=O)[C@@H](Cc2ccc(Cl)cc2)NC1=O [Compound 16c] (cyclo(L[dPhe(4-Cl)]VN[dOrn]W))	≥ 192	92% and 92.54%	98	99	19.21	0.59	1.89	24.21	2.43	< 0.5	76.78	13.82		1.92	< 0.3	> ¾	0.3773		
CC[C@H](C)[C@@H]1NC(=O)[C@H](Cc2c[nH]c3ccccc23)NC(=O)[C@@H](CCCN)NC(=O)[C@H](CC(N)=O)NC(=O)[C@H](C(C)C)NC(=O)[C@@H](CC(C)C)NC1=O [Compound 19c] (cyclo(I[dL]VN[dOrn]W))	≥ 183	67.10%			<16.3	<0.48	> 2.31	<20.50	<0.40	> 2.31	<35.08	<6.35	7.5 (≈ 5.55 µg/mL)		< 1			1.73	
CC[C@H](C)[C@@H]1NC(=O)[C@H](CC(C)C)NC(=O)[C@H](Cc2c[nH]c3ccccc23)NC(=O)[C@@H](CCCN)NC(=O)[C@H](CC(N)=O)NC(=O)[C@H](C(C)C)NC1=O [Compound 20c] (cyclo(IVN[dOrn]WL))	≥ 195	83.67%			<16.3	<0.48	> 2.31	<20.50	<0.40	> 2.31	<35.08	<6.35	>80		< 0.3			1.83	completely abolished the activity
